These results are taken from paper PMC11995724, “Antibiotic target discovery by integrated phenotypic and activity-based profiling of electrophilic fragments” (Cell chemical biology, 2025).

Structures can show the parent of a compound that is named as a salt.

The data set can be described thus: in vitro. Conditions: human, hek293t cells.
As for `CC1CCN(Cc2csc(NC(=O)CCl)n2)CC1` [6-E17, 2-chloro-N-{4-[(4-methylpiperidin-1-yl)methyl]-1,3-thiazol-2-yl}acetamide hydrochloride], the viability at 48 h, 25 µM came out at 0.0269%.
Next, `O=C(CCl)NCC1(c2ccc(F)cc2)CCCC1` [6-E18, 2-chloro-N-{[1-(4-fluorophenyl)cyclopentyl]methyl}acetamide]: 5.22%.
Then `O=C(CCl)NCCc1ncc(F)cn1` [6-E19, 2-chloro-N-[2-(5-fluoropyrimidin-2-yl)ethyl]acetamide], with 104%; and `O=C(CCl)NCc1ccc(NC(=O)C2CC2)cc1` [6-E20, N-{4-[(2-chloroacetamido)methyl]phenyl}cyclopropanecarboxamide], with 2.09%.
Next, `CC(Cl)C(=O)NC(C)(C)c1ccc(F)cc1F` (centres unmarked) [6-E21, 2-chloro-N-[2-(2,4-difluorophenyl)propan-2-yl]propanamide]: 93.5%; `O=C(CCl)NCc1ccc(N2CCOCC2)nc1` [6-E22, 2-chloro-N-{[6-(morpholin-4-yl)pyridin-3-yl]methyl}acetamide]: 8.26%.
`Cc1cc(C)cc(OCCN(C)C(=O)CCl)c1` [6-F03, 2-chloro-N-[2-(3,5-dimethylphenoxy)ethyl]-N-methylacetamide]: the viability at 48 h, 25 µM was determined as 0.538%.
With `O=C(CCl)NCC(=O)N1CCC(Cc2ccccc2)CC1` [6-F04, N-[2-(4-benzylpiperidin-1-yl)-2-oxoethyl]-2-chloroacetamide], the viability at 48 h, 25 µM is 21.7%.
Take `CC(Cl)C(=O)N1CCC(c2nc(N(C)C)no2)CC1` (centres unmarked) [6-F05, 2-chloro-1-{4-[3-(dimethylamino)-1,2,4-oxadiazol-5-yl]piperidin-1-yl}propan-1-one]: the viability at 48 h, 25 µM was 108%.
Then `CC(Cl)C(=O)NCCc1ccc(F)cc1` (centres unmarked) [6-F06, 2-chloro-N-[2-(4-fluorophenyl)ethyl]propanamide], with 112%; and `CC(Cl)C(=O)NCC1CN(c2ccc(Cl)cc2)CCO1` (centres unmarked) [6-F07, 2-chloro-N-{[4-(4-chlorophenyl)morpholin-2-yl]methyl}propanamide], with 101%; and `O=C(CCl)N1CCSc2c([nH]c3ccccc23)C1` [6-F08, 2-chloro-1-{2H,3H,4H,5H,6H-[1,4]thiazepino[6,7-b]indol-4-yl}ethan-1-one], with 1.68%.
Then `CC(Cl)C(=O)NCc1nc(-c2cccc(C#N)c2)c[nH]1` (centres unmarked) [6-F09, 2-chloro-N-{[4-(3-cyanophenyl)-1H-imidazol-2-yl]methyl}propanamide], with 113%; and `Cc1cccc(C)c1NC(=O)CNC(=O)C(C)Cl` (centres unmarked) [6-F10, 2-chloro-N-{[(2,6-dimethylphenyl)carbamoyl]methyl}propanamide], with 106%; and `Cc1noc(C)c1CC(=O)N1CCN(C(=O)C(C)Cl)CC1` (centres unmarked) [6-F11, 2-chloro-1-{4-[2-(3,5-dimethyl-1,2-oxazol-4-yl)acetyl]piperazin-1-yl}propan-1-one], with 106%.
Then `COc1ccc(NC(=O)C(C)Cl)cc1OC` (centres unmarked) [6-F12, 2-chloro-N-(3,4-dimethoxyphenyl)propanamide], with 109%; and `CC(CNC(=O)C(C)Cl)Oc1cccc(Cl)c1` (centres unmarked) [6-F13, 2-chloro-N-[2-(3-chlorophenoxy)propyl]propanamide], with 103%.
As for `CC(Cl)C(=O)NCc1nnnn1CC1CC1` (centres unmarked) [6-F14, 2-chloro-N-{[1-(cyclopropylmethyl)-1H-1,2,3,4-tetrazol-5-yl]methyl}propanamide], the viability at 48 h, 25 µM stood at 115%.
Take `CC(Cl)C(=O)N1CCC(c2nccn2C)C1` (centres unmarked) [6-F15, 2-chloro-1-[3-(1-methyl-1H-imidazol-2-yl)pyrrolidin-1-yl]propan-1-one]: the viability at 48 h, 25 µM was found to be 98.6%.
Next, `CC(Cl)C(=O)N1CCCCC1C1CCCN(C(=O)C(F)(F)F)C1` (centres unmarked) [6-F16, 2-chloro-1-[1'-(2,2,2-trifluoroacetyl)-[2,3'-bipiperidin]-1-yl]propan-1-one]: 105%.
